{"source": "the supplement of paper PMC10307832", "test_in_all_cases": "relative viability (nuclei count vs DMSO), 5 days (fraction); higher = more cells survive", "key": {"[1]": {"tested_on": "BEN", "procedure,_shortened": "(§1)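 One day after seeding in 1536-well plates, lung cancer cell lines were dosed by pin tool. Dosing was either single-drug or a fixed anchor-drug dose plus five library-drug doses (not always all listed) in √10 steps. After 5 days, nuclei were stained in one fix-and-stain step and counted on 4× images, and relative viability is the nuclei count of treated wells over that of vehicle wells, given as the median of duplicate plates.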"}, "[2]": {"tested_on": "CAL-12T", "procedure,_shortened": "as §1"}, "[3]": {"tested_on": "EKVX", "procedure,_shortened": "as §1"}, "[4]": {"tested_on": "HCC-366", "procedure,_shortened": "as §1"}, "[5]": {"tested_on": "HCC-44", "procedure,_shortened": "as §1"}, "[6]": {"tested_on": "LOU-NH91", "procedure,_shortened": "as §1"}, "[7]": {"tested_on": "LU99A", "procedure,_shortened": "as §1"}, "[8]": {"tested_on": "NCI-H1355", "procedure,_shortened": "as §1"}, "[9]": {"tested_on": "NCI-H1395", "procedure,_shortened": "as §1"}, "[10]": {"tested_on": "NCI-H1437", "procedure,_shortened": "as §1"}, "[11]": {"tested_on": "NCI-H1651", "procedure,_shortened": "as §1"}, "[12]": {"tested_on": "NCI-H1734", "procedure,_shortened": "as §1"}, "[13]": {"tested_on": "NCI-H1755", "procedure,_shortened": "as §1"}, "[14]": {"tested_on": "NCI-H1975", "procedure,_shortened": "as §1"}, "[15]": {"tested_on": "NCI-H2085", "procedure,_shortened": "as §1"}, "[16]": {"tested_on": "NCI-H2342", "procedure,_shortened": "as §1"}, "[17]": {"tested_on": "NCI-H358", "procedure,_shortened": "as §1"}, "[18]": {"tested_on": "NCI-H441", "procedure,_shortened": "as §1"}, "[19]": {"tested_on": "NCI-H460", "procedure,_shortened": "as §1"}, "[20]": {"tested_on": "NCI-H838", "procedure,_shortened": "as §1"}}, "data": [{"smiles": "O=C(O)c1ccc(-c2c[nH]c3ncc(-c4ccccc4)cc23)cc1C1CCCC1", "note": "+ NC(=O)Nc1cc(-c2cccc(F)c2)sc1C(=O)N[C@H]1CCCNC1 [AZD7762] (partner 0.2 µM)", "values": [{"measurement": "relative viability", "setting": "[1]; first compound 0.04 µM", "result": 0.529}, {"measurement": "relative viability", "setting": "[1]; first compound 0.1265 µM", "result": 0.775}, {"measurement": "relative viability", "setting": "[1]; first compound 0.4 µM", "result": 0.698}, {"measurement": "relative viability", "setting": "[1]; first compound 1.265 µM", "result": 0.771}, {"measurement": "relative viability", "setting": "[2]; first compound 0.04 µM", "result": 0.632}, {"measurement": "relative viability", "setting": "[2]; first compound 0.1265 µM", "result": 0.698}, {"measurement": "relative viability", "setting": "[2]; first compound 0.4 µM", "result": 0.629}, {"measurement": "relative viability", "setting": "[2]; first compound 1.265 µM", "result": 0.671}, {"measurement": "relative viability", "setting": "[3]; first compound 0.04 µM", "result": 0.679}, {"measurement": "relative viability", "setting": "[3]; first compound 0.1265 µM", "result": 0.818}, {"measurement": "relative viability", "setting": "[3]; first compound 0.4 µM", "result": 0.888}, {"measurement": "relative viability", "setting": "[3]; first compound 1.265 µM", "result": 0.593}, {"measurement": "relative viability", "setting": "[4]; first compound 0.04 µM", "result": 0.274}, {"measurement": "relative viability", "setting": "[4]; first compound 0.1265 µM", "result": 0.413}, {"measurement": "relative viability", "setting": "[4]; first compound 0.4 µM", "result": 0.399}, {"measurement": "relative viability", "setting": "[4]; first compound 1.265 µM", "result": 0.43}, {"measurement": "relative viability", "setting": "[5]; first compound 0.04 µM", "result": 1.07}, {"measurement": "relative viability", "setting": "[5]; first compound 0.1265 µM", "result": 1.03}, {"measurement": "relative viability", "setting": "[5]; first compound 0.4 µM", "result": 1.01}, {"measurement": "relative viability", "setting": "[5]; first compound 1.265 µM", "result": 0.946}, {"measurement": "relative viability", "setting": "[6]; first compound 0.04 µM", "result": 0.818}, {"measurement": "relative viability", "setting": "[6]; first compound 0.1265 µM", "result": 0.866}, {"measurement": "relative viability", "setting": "[6]; first compound 0.4 µM", "result": 0.787}, {"measurement": "relative viability", "setting": "[6]; first compound 1.265 µM", "result": 0.769}, {"measurement": "relative viability", "setting": "[7]; first compound 0.04 µM", "result": 0.486}, {"measurement": "relative viability", "setting": "[7]; first compound 0.1265 µM", "result": 0.522}, {"measurement": "relative viability", "setting": "[7]; first compound 0.4 µM", "result": 0.421}, {"measurement": "relative viability", "setting": "[7]; first compound 1.265 µM", "result": 0.411}, {"measurement": "relative viability", "setting": "[8]; first compound 0.04 µM", "result": 0.729}, {"measurement": "relative viability", "setting": "[8]; first compound 0.1265 µM", "result": 0.912}, {"measurement": "relative viability", "setting": "[8]; first compound 0.4 µM", "result": 0.856}, {"measurement": "relative viability", "setting": "[8]; first compound 1.265 µM", "result": 0.703}, {"measurement": "relative viability", "setting": "[9]; first compound 0.04 µM", "result": 0.416}, {"measurement": "relative viability", "setting": "[9]; first compound 0.1265 µM", "result": 0.416}, {"measurement": "relative viability", "setting": "[9]; first compound 0.4 µM", "result": 0.409}, {"measurement": "relative viability", "setting": "[9]; first compound 1.265 µM", "result": 0.462}, {"measurement": "relative viability", "setting": "[10]; first compound 0.04 µM", "result": 1.15}, {"measurement": "relative viability", "setting": "[10]; first compound 0.1265 µM", "result": 1.21}, {"measurement": "relative viability", "setting": "[10]; first compound 0.4 µM", "result": 1.15}, {"measurement": "relative viability", "setting": "[10]; first compound 1.265 µM", "result": 0.934}, {"measurement": "relative viability", "setting": "[11]; first compound 0.04 µM", "result": 0.326}, {"measurement": "relative viability", "setting": "[11]; first compound 0.1265 µM", "result": 0.56}, {"measurement": "relative viability", "setting": "[11]; first compound 0.4 µM", "result": 0.551}, {"measurement": "relative viability", "setting": "[11]; first compound 1.265 µM", "result": 0.426}, {"measurement": "relative viability", "setting": "[12]; first compound 0.04 µM", "result": 0.534}, {"measurement": "relative viability", "setting": "[12]; first compound 0.1265 µM", "result": 0.68}, {"measurement": "relative viability", "setting": "[12]; first compound 0.4 µM", "result": 0.606}, {"measurement": "relative viability", "setting": "[12]; first compound 1.265 µM", "result": 0.645}, {"measurement": "relative viability", "setting": "[13]; first compound 0.04 µM", "result": 0.488}, {"measurement": "relative viability", "setting": "[13]; first compound 0.1265 µM", "result": 0.521}, {"measurement": "relative viability", "setting": "[13]; first compound 0.4 µM", "result": 0.547}, {"measurement": "relative viability", "setting": "[13]; first compound 1.265 µM", "result": 0.523}, {"measurement": "relative viability", "setting": "[14]; first compound 0.04 µM", "result": 0.738}, {"measurement": "relative viability", "setting": "[14]; first compound 0.1265 µM", "result": 0.793}, {"measurement": "relative viability", "setting": "[14]; first compound 0.4 µM", "result": 0.676}, {"measurement": "relative viability", "setting": "[14]; first compound 1.265 µM", "result": 0.728}, {"measurement": "relative viability", "setting": "[15]; first compound 0.04 µM", "result": 0.944}, {"measurement": "relative viability", "setting": "[15]; first compound 0.1265 µM", "result": 1.09}, {"measurement": "relative viability", "setting": "[15]; first compound 0.4 µM", "result": 1.03}, {"measurement": "relative viability", "setting": "[15]; first compound 1.265 µM", "result": 0.871}, {"measurement": "relative viability", "setting": "[16]; first compound 0.04 µM", "result": 0.41}, {"measurement": "relative viability", "setting": "[16]; first compound 0.1265 µM", "result": 0.467}, {"measurement": "relative viability", "setting": "[16]; first compound 0.4 µM", "result": 0.535}, {"measurement": "relative viability", "setting": "[16]; first compound 1.265 µM", "result": 0.459}, {"measurement": "relative viability", "setting": "[17]; first compound 0.04 µM", "result": 0.494}, {"measurement": "relative viability", "setting": "[17]; first compound 0.1265 µM", "result": 0.536}, {"measurement": "relative viability", "setting": "[17]; first compound 0.4 µM", "result": 0.456}, {"measurement": "relative viability", "setting": "[17]; first compound 1.265 µM", "result": 0.452}, {"measurement": "relative viability", "setting": "[18]; first compound 0.04 µM", "result": 1.01}, {"measurement": "relative viability", "setting": "[18]; first compound 0.1265 µM", "result": 1.23}, {"measurement": "relative viability", "setting": "[18]; first compound 0.4 µM", "result": 1.11}, {"measurement": "relative viability", "setting": "[18]; first compound 1.265 µM", "result": 1.14}, {"measurement": "relative viability", "setting": "[19]; first compound 0.04 µM", "result": 0.625}, {"measurement": "relative viability", "setting": "[19]; first compound 0.1265 µM", "result": 0.822}, {"measurement": "relative viability", "setting": "[19]; first compound 0.4 µM", "result": 0.886}, {"measurement": "relative viability", "setting": "[19]; first compound 1.265 µM", "result": 0.794}, {"measurement": "relative viability", "setting": "[20]; first compound 0.04 µM", "result": 0.978}, {"measurement": "relative viability", "setting": "[20]; first compound 0.1265 µM", "result": 1.07}, {"measurement": "relative viability", "setting": "[20]; first compound 0.4 µM", "result": 0.992}, {"measurement": "relative viability", "setting": "[20]; first compound 1.265 µM", "result": 0.92}]}]}
